In patent US5990151A, “Optically active substituted phenylalkylamine derivatives” (Taisho Pharmaceutical Co., Ltd., priority 1995, dated 1999):
Counter-ions that a name gives are not always drawn.

What was measured:
sigma 1 receptor [1] = conditions: cited from earlier work; for affinity for sigma 1 receptor: (agonist), Trends in Pharmacological Sciences, Vol. 13, pp. 85-86
humans = conditions: cited from earlier work
sigma 1 receptor [2] = biological target: T1, sigma 1 receptor (Cavia porcellus, UniProt Q60492); assay: Receptor binding experiment, sigma 1, [3H](+)-pentazocine, membrane of total brains of guinea pigs; parameters: species or system Hartley guinea pigs; conditions: [3H](+)-pentazocine (2 nM), 25° C., 120 minutes, 50 mM Tris-HCl pH 7.4; non-specific: 10 μM haloperidol; read-out: Sigma 1 (IC50, concentration of the test drug which inhibits individual binding by 50%)
T1 construct: A membrane specimen prepared from the total brains of guinea pigs; from tissue; host or cells: total brains of Hartley guinea pigs (membrane specimen)
T1 sequence (Q60492 whole entry): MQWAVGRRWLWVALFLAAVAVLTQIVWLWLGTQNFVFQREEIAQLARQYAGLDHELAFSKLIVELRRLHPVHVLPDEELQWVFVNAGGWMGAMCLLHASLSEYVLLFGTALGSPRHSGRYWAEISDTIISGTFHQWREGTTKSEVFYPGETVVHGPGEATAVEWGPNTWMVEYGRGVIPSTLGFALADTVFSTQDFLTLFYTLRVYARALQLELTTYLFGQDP
Protocol: As experimental animals, Hartley guinea pigs were used. […] 121 (1994) using [^3 H] (+)-pentazocine (sigma 1) or [^3 H]1,3-di-o-tolylguanidine (DTG) (sigma 2) as a [^3 H]-labelled ligand.
A membrane specimen prepared from the total brains of guinea pigs, a [^3 H] ligand and a test drug were reacted in 50 mM Tris-HCl buffer (pH 7.4). For examining sigma 1, [^3 H](+)-pentazocine (2 nM) as a [^3 H] ligand was reacted at 25° C. for 120 minutes. For examining sigma 2, [^3 H] DTG (1 nM) as a [^3 H] ligand was reacted in the presence of 10^-7 M (+)-pentazocine at 25° C. for 90 minutes. After the completion of the reaction, the reaction solution was vacuum filtered through a glass filter (GF/B), and the radioactivity of the filter was determined with a liquid scintillation spectrometer.
The binding which occurred in the reaction in the presence 10 μM haloperidol was regarded as non-specific binding, and the difference obtained by subtracting non-specific binding from the total binding was regarded as specific binding. An inhibition curve was obtained by reacting a [^3 H] ligand at a specific concentration with a test drug at varied concentrations under the conditions described above. From this inhibition curve, the concentration of the test drug which inhibits individual binding by 50% (IC50) is obtained.

For `C[C@@H]1CN(CCCn2c3ccccc3c3ccccc32)C[C@H](C)N1` [Rimcazole], the “specificity to and affinity for sigma 1 receptor” value (sigma 1 receptor [1]; sigma antagonist, background art) is given as “not sufficient”.

In the case of `C=CCN1CCC2(C)c3cc(O)ccc3CC1C2C` (stereo not shown) [SKF10047, N-arylnormethazocine], the “develop psychotic symptoms in humans” value (humans) is listed as “develop psychotic symptoms in humans” and the “affinity for sigma 1 receptor” value (sigma 1 receptor [1]) is listed as “high affinity”.

Compound `CCCNC(CCC(C)C)Cc1ccc(OC)c(OCCc2ccccc2)c1` (single isomer, unassigned; (-)) [A, (-)-N-propyl-1-(3-methylbutyl)-2-[4-methoxy-3-(2-phenylethoxy)phenyl]ethylamine hydrochloride] has an IC50 (sigma 1 receptor [2]) of 0.46 nM.

In the case of `CC(C)=CCN1CCC2(C)c3cc(O)ccc3CC1C2C` (stereo not shown) [pentazocine], the “develop psychotic symptoms in humans” value (humans) is listed as “develop psychotic symptoms in humans” and the “affinity for sigma 1 receptor” value (sigma 1 receptor [1]) is listed as “high affinity”.

With `CCCCC(Cc1ccc(OC)c(OCCc2ccccc2)c1)NCCC` (single isomer, unassigned; (-)) [B, (-)-N-propyl-1-butyl-2-[4-methoxy-3-(2-phenylethoxy)-phenyl]ethylamine hydrochloride] the IC50 (sigma 1 receptor [2]) was 0.73 nM.
